Experiments:
NMDAR = test: Radioligand binding assay, off-target profiling; conditions: 10 M MJPY1, mean, n = 4
CB1 = molecular target: T1, CB1 (Homo sapiens, UniProt P21554); test: PRESTO-TANGO functional assay CB1; format: cell-based; conditions: against positive controls, n=3
T1 construct: expressed in transfected cells
Protocol: (§1) The specificity of compound 1 (MJPY1) to act only on glycine receptors was determined. No cross reactivity with other commonly known receptors was detected (FIG. 16 and Table 2). […] Activity is reported in relative luminescence units (RLU) as mean and SEM (n=3).

C57Bl/6J mice = test: Hargreaves test in C57Bl/6J mice; format: in vivo
Protocol: In vivo mouse behavior tests validated the analgesic action of the representative compounds in response to inflammation. Responses of C57Bl/6J mice to the Hargreaves test (Pain, 32:77-88, 1988) were assessed pre- and post-application of compound 1 alone (white circles, application time=0 hours). […] Error bars designate the standard error of the mean (n≥4).

KOR = KOR (Homo sapiens, UniProt P41145); test: Radioligand binding assay, off-target profiling; conditions: 10 M MJPY1, mean, n = 4
Chain of KOR (P41145 whole entry): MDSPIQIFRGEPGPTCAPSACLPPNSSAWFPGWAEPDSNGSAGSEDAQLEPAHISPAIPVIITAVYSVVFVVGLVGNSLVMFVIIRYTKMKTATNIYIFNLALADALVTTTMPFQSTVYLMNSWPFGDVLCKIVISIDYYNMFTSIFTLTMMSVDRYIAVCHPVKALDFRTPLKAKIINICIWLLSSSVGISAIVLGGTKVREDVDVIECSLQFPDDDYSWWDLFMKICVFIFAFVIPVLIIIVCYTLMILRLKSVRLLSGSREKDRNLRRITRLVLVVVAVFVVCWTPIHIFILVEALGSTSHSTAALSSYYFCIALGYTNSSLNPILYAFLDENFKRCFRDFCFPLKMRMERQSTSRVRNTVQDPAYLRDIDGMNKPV

mice = test: Two-plate thermal preference test (30° C. vs 55° C.); format: in vivo
Protocol: Responses to the two-plate thermal preference test were assessed under naïve conditions and 1 hour after administration of 0.2 mg/kg compound 1, 0.1 mg/kg morphine, or 0.2 mg/kg compound 1+0.1 mg/kg morphine. Unrestrained mice were exposed to plates set to normal and hot temperatures (30° C. and 55° C., respectively). Temperature preference was measured by percentage time spent on the hot plate (55° C.) over the course of 4 minutes, where 50% indicates no preference between the two temperatures. […] Error bars designate the standard error of the mean (n≥5).
Unrestrained mice were exposed to plates set to normal and hot temperatures (30° C. and 55° C., respectively) for 10 minutes. […] Error bars designate the standard error of the mean (n=4).
The percent inactivity on the 55° C. plate (mean±SEM) is a measure of heat tolerance. Significance was assessed by one-way ANOVA with LSD post-hoc test.

5-HT3R = molecular target: T2, 5-HT3R (Homo sapiens, UniProt P46098); test: Radioligand binding assay, off-target profiling; conditions: 10 M MJPY1, mean, n = 4
T2 sequence (P46098 24-478): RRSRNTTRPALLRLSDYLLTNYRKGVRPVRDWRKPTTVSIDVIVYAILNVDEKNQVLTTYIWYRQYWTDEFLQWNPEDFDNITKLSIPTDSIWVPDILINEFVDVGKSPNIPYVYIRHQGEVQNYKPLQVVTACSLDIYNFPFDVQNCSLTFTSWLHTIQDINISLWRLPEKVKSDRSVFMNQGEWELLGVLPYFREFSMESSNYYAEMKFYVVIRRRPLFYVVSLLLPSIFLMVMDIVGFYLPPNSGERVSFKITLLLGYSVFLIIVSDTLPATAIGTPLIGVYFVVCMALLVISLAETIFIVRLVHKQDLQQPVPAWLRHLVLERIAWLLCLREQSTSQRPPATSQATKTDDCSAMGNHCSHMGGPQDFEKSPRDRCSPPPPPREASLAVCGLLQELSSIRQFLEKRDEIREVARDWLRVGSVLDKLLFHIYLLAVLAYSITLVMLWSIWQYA

S296A mutation in α3GlyR = molecular target: T3, S296A mutation in α3GlyR (Homo sapiens, UniProt O75311, S329A); test: Electrophysiology on Xenopus laevis oocytes, S296A mutant; format: cell-based; conditions: EC2 agonist, 10 μM compound
T3 construct: expressed in transfected cells; host or cells: Xenopus laevis oocytes
T3 sequence (O75311 34-464 S329A): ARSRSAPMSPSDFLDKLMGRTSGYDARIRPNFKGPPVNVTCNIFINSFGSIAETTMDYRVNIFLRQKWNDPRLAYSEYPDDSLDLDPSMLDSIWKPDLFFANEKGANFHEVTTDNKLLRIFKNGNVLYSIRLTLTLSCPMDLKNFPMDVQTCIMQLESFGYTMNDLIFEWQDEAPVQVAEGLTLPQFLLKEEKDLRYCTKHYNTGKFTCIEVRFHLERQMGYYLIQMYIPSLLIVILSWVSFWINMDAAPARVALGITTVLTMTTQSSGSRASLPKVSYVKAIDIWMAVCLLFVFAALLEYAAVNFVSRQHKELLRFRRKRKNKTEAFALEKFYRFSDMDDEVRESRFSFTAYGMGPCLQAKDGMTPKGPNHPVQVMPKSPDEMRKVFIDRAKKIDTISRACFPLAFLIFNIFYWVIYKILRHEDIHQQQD
Protocol: (§2) MJPY1 potentiates α3GlyR through binding to the THC-binding site near S296 in the transmembrane domain (TMD). Like α3GlyR, but unlike ELIC, the chimera ELIC-α3GlyR containing the α3GlyR TMD is potentiated by MJPY1. The S296A mutation in α3GlyR abolishes compound 1 (MJPY1)'s potentiation. Data were recorded at EC2 agonist for the indicated channels and are reported as the ratio of currents in the presence (I) and absence (Io) of 10 μM compound 1 (MJPY1). Error bars represent SEM (n≥4 oocytes).

[1] = system: chimera ELIC-α3GlyR containing the α3GlyR TMD; test: Electrophysiology on Xenopus laevis oocytes, chimera; format: cell-based; conditions: EC2 agonist, 10 μM compound
Protocol: as §2

CB2 = molecular target: T4, CB2 (Homo sapiens, UniProt P34972); test: PRESTO-TANGO functional assay CB2; format: cell-based; conditions: against positive controls, n=3
T4 construct: expressed in transfected cells
T4 sequence (P34972 whole entry): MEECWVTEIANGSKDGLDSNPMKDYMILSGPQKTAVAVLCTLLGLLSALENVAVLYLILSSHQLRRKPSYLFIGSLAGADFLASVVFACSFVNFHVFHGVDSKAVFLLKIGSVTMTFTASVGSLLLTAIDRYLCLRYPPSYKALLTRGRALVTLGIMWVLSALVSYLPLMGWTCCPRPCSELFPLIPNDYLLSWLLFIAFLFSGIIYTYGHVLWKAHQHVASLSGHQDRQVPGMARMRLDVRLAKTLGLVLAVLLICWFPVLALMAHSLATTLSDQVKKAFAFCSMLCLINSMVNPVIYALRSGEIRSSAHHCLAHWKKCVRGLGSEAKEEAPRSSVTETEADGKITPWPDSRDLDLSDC
Protocol: as §1

hERG = hERG (Homo sapiens, UniProt Q12809); test: Radioligand binding assay, off-target profiling; conditions: 10 µM MJPY1, mean, n = 4
Chain of hERG (Q12809 whole entry): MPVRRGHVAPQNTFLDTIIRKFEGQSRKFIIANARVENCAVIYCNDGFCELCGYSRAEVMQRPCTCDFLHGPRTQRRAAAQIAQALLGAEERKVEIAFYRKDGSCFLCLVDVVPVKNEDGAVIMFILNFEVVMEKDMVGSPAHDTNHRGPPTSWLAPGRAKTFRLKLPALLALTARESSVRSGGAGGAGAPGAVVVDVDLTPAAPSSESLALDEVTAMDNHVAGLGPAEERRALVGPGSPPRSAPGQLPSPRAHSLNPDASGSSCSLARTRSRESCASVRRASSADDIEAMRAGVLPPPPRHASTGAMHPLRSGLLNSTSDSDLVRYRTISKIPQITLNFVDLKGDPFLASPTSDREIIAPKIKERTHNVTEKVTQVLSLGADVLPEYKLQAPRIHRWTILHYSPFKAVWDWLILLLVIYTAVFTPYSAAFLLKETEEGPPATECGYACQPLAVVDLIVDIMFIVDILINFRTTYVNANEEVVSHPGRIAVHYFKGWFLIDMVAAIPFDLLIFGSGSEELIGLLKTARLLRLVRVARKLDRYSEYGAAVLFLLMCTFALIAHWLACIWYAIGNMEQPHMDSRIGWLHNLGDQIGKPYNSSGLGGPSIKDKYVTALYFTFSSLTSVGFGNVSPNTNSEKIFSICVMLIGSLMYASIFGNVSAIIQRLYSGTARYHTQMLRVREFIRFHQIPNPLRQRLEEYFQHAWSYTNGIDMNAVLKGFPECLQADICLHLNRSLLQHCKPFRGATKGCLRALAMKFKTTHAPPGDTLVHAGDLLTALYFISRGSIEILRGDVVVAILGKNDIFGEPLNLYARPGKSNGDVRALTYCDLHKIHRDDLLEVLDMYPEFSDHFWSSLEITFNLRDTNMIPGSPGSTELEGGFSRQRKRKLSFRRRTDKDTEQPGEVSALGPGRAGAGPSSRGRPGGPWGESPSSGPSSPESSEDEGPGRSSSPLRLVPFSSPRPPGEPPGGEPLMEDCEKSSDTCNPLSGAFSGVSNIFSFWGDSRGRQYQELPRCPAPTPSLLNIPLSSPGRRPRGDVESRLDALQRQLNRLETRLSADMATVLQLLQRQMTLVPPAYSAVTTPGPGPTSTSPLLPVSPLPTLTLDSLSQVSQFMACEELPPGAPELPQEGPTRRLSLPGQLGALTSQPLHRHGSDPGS

T1 sequence (P21554 whole entry): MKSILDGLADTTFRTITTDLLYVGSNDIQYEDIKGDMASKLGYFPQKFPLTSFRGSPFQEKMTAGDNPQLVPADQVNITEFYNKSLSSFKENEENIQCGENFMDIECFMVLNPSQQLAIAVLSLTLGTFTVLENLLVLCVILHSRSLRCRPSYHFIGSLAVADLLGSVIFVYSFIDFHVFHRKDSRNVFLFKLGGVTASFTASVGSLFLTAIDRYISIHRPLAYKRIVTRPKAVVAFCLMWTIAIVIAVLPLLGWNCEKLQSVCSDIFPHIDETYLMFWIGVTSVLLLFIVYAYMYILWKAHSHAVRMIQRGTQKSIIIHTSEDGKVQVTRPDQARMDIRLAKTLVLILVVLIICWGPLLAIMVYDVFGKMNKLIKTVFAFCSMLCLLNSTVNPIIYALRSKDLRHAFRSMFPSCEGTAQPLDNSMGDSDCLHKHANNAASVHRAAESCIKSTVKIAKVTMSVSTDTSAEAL

NC(=O)c1cccc(CNC(=O)c2ccc3c4c(cccc24)CC3)c1 [compound 1, N-[(3-carbamoylphenyl)-methyl]-1,2-dihydroacenaphthylene-5-carboxamide]
% Inhibition NMDAR (NMDAR): −2.4%
agonist or antagonist activity on CB1 (RLU) (CB1): no agonist (top) or antagonist (bottom) activity
response time for paw withdrawal (C57Bl/6J mice; maximum CFA-induced hyperalgesic conditions (24 hours post CFA)): increase in response time
response time for paw withdrawal (C57Bl/6J mice; normal nociceptive conditions): no significant effect
% Inhibition KOR (KOR): 5.0%
analgesic action compared with morphine (percent inactivity on the 55° C. plate) (mice; 0.1 mg/kg i.p., male CD1 mice, 24 hr after CFA, 1 hr after treatment, same dose): better than morphine
percentage time spent on the hot plate (55° C.) compared to naïve mice (mice; normal nociception, 1 hour after 0.2 mg/kg compound 1, 0.1 mg/kg morphine, or both, 4 minutes): no significant analgesic response
% Inhibition 5-HT3R (5-HT3R): −5.7%
potentiation of α3GlyR S296A (I/Io) (S296A mutation in α3GlyR): abolishes
potentiation of chimera ELIC-α3GlyR (I/Io) [1]: potentiated
agonist or antagonist activity on CB2 (RLU) (CB2): no agonist (top) or antagonist (bottom) activity
inhibition at 10 µM (hERG): -19.5%

Source: patent publication US12194033B2, “Glycine receptor modulators and methods of use” (University of Pittsburgh—Of the Commonwealth System of …, priority 2017, dated 2025)
